Read-outs that look alike come from different tables or passages of the source.
Assays:
[1] = molecular target: T1, FLT3 (Homo sapiens, UniProt P36888); assay: SelectScreen kinase assay against FLT3; format: biochemical; settings: ATP at 100 micromolar; for inhibition at 1 µM: 1000 nMolar, read-out: E1000 (percent inhibition at 1000 nMolar)
T1 construct: purchased Invitrogen, Inc. (SelectScreen platform)
T1 sequence (P36888 27-993): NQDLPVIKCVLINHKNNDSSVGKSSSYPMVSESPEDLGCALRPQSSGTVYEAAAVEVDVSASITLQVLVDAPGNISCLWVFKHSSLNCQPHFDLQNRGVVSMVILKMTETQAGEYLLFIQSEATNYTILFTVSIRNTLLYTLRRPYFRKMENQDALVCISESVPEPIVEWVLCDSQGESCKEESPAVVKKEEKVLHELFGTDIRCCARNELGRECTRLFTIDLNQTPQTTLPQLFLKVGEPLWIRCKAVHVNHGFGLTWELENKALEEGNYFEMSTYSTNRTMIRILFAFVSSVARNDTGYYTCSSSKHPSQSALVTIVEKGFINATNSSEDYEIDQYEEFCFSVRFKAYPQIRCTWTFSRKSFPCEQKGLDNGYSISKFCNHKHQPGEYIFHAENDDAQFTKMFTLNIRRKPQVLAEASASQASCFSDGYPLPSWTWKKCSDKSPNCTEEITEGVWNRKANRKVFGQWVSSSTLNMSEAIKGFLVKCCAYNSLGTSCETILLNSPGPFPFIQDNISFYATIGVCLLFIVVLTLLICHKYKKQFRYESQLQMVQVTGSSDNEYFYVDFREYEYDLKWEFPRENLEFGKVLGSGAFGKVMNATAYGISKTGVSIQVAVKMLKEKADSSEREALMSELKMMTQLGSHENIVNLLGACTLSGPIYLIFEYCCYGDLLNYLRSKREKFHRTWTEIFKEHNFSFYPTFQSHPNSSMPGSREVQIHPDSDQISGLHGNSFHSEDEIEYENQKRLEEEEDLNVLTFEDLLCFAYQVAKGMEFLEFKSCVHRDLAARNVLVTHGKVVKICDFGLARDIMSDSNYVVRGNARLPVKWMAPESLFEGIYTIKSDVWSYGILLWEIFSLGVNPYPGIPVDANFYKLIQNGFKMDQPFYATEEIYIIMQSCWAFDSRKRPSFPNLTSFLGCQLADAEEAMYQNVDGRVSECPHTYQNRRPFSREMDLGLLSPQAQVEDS
Procedure: The terms “IC50” and “EC50” are used interchangeably. As used herein, “EC50” refers to nMolar concentration at median percent inhibition determined by dose respose (DR) assay. As used herein, the term “E1000” refers to percent inhibition at 1000 nMolar determined by assay. EC50 was calculated based on dose response curve was fitted to 4 parameter Hill equation.
Testing of the compounds described in this invention was carried out using the SelectScreen™ platform from Invitrogen, Inc. (Carlsbad, Calif., USA) and the details of its performance are readily viewed via the web by linking to: http://www.invitrogen.com/downloads/SelectScrn_Brochure.pdf.
Briefly the approach is based on treating each specific kinase with a unique substrate and optical reporter system in the presence of ATP at 100 micromolar. In controls, the substrate is phosphorylated and a baseline optimal response is recorded.
The compounds were then re-tested by adding graded amounts of putative inhibitor which were added in 5 separate increments to generate a dose response curve. The latter is obtained by fitting to a 4 parameter Hill equation, a sigmoid saturation equation.
For the compounds of this invention, the experimental condition were as follows. The 2×FLT3/Tyr 02 peptide mixture was prepared in 50 mM HEPES pH 7.5, 0.01 BRIJ-35, 10 mM MgCl2, 1 mM EGTA. The final 10 uL kinase reaction consists of 0.6-76.0 ng FLT3 and 2 uM Tyr 02 peptide in 50 mM HEPES pH 7.5, 0.01% BRIJ-35, […], 1 mM EGTA. After 1 hour kinase reaction incubation, 5 uL of a 1:64 dilution of development reagent A was added.
EC50 and E1000 values for selected compounds of formula (IB) were measured according to the protocol described above in Example 9.

[2] = tested on: arthritis induced by monoclonal antibodies raised against type II collagen, plus LPS; settings: Lange et al., 2005; cited from earlier work
[3] = tested on: T-lymphocyte cells isolated from thymus; assay: Cell proliferation, T-Cell + Con A ([3H]thymidine incorporation); format: cell-based, balb/c mice; settings: Mus musculus
Procedure: T-lymphocyte cells isolated from thymus of balb/c mice weighing 17±1 g were used. Test compound and/or vehicle is incubated with the cells (4×10^6/ml) in the presence of 3 μg/mL Concanavalin A (Con A) in AIM-V medium pH 7.4 at 37° C. for 24 hours. [^3H]Thymidine (120 nM) was then added for an additional overnight incubation period. Thymidine incorporation was assessed by liquid scintillation counting. Compounds were screened at 10, 1, 0.1, 0.01 and 0.001 μM.
(§1) Test compound-induced suppression of cell proliferation by 50 percent or more (≧50%) relative to vehicle control response indicates significant inhibitory activity.

[4] = tested on: IL-10; assay: Mediator release, IL-10 (Con A-stimulated PBML, sandwich ELISA); format: cell-based; settings: Homo sapiens, read-out: % inhibition of IL-10 release, read-out: % Growth Inhibition
Procedure: (§2) In this experiment, test compound and/or vehicle were preincubated with human peripheral blood mononuclear leukocyte (PBML, 1×10^6/ml) in RPMI buffer pH 7.4 for 2 hours. Concanavalin A (Con A, 20 μg/ml) was then added to stimulate the cells overnight in 5% CO2 at 37° C. IL-4 and IL-10 cytokine levels in the conditioned medium were then quantified using a sandwich ELISA kit. Compounds were screened at 10, 1, 0.1, 0.01 and 0.001 μM.

[5] = tested on: Experimental Autoimmune Encephalomyelitis (EAE); assay: Acute stage Experimental Autoimmune Encephalomyelitis (EAE) model, daily dosing
Procedure: Accordingly, three randomized cohorts of guinea pigs with EAE induced by the method of Example 2, were treated, respectively, with 6 mg/kg of Symadex™ (full salt hydrate) and 0.35 mg/kg of mitoxantrone. Animals were treated daily, by intraperitoneal injection, for 15 days, starting on day 7 post immunization. Controls were treated with vehicle. We reasoned that 15 consecutive, 6 mg/kg doses of Symadex™ would represent a level of drug exposure that would be commensurate with the “20 mg/kg every 72 hours” regimen in Example 4 and consistent with a mid level exposure between the 20 mg/kg and the 40 mg/kg schedule given weekly, in Example 2. The mitoxantrone dose was selected to reflect a typical high dose given to rats or mice by daily dosing in the prior art, but allometrically scaled to the guinea pig.

[6] = tested on: IL-4; assay: Mediator release, IL-4 (Con A-stimulated PBML, sandwich ELISA); format: cell-based; settings: Homo sapiens, read-out: % Growth Inhibition
Procedure: as §2

[7] = tested on: B-lymphocyte cells isolated from the spleen; assay: Cell proliferation, B-Cell + LPS ([3H]thymidine incorporation); format: cell-based, balb/c mice; settings: Mus musculus, read-out: % Growth Inhibition
Procedure: B-lymphocyte cells isolated from the spleen of balb/c mice weighing 17±1 g were used. Test compound and/or vehicle were incubated with the cells (1.5×10^6/ml) in the presence of 10 μg/ml lipopolysaccharide (LPS) in AIM-V medium pH 7.4 at 37° C. for 24 hours. [^3H]Thymidine (120 nM) was then added for an additional overnight incubation period. Thymidine incorporation was assessed by liquid scintillation counting.
as §1

`CN(C)CCCCCNc1ccc2ncn3c4ccc5[nH]ncc5c4c(=O)c1c23` [(IIIA)] showed an inhibition at 1 µM ([1]; indazoles) of 96% and an EC50 ([1]; indazoles) of 0.016 µM.
Compound `CN(C)CCCNc1ccc2ncn3c4ccc5[nH]ncc5c4c(=O)c1c23` [(IVA)] has an EC50 ([1]; indazoles) of 0.009 µM.
In the case of `CN(C)CCNc1ccc2ncn3c4ccc(OC(=O)OC(C)(C)C)cc4c(=O)c1c23` [(VB)], the inhibition at 1 µM ([1]; esters of formula (IB)) is reported as 92% and the EC50 ([1]; esters of formula (IB)) is reported as 0.096 µM.
`O=c1c2c(NCCN3CCOCC3)ccc3ncn(c4ccc5[nH]ncc5c14)c32` [Compound (VA)] gave an inhibition at 1 µM ([1]; indazoles) of 87% and an EC50 ([1]; indazoles) of 0.032 µM.
In the case of `CCN(CC)CCNc1ccc2ncn3c4ccc(OC(C)=O)cc4c(=O)c1c23` [Compound (VIB), Acetic acid 5-(2-diethylamino-ethylamino)-6-oxo-6H-2,10b-diaza-aceanthrylen-8-yl ester], the inhibition at 1 µM ([1]; esters of formula (IB)) is reported as 64% and the EC50 ([1]; esters of formula (IB)) is reported as 0.471 µM.
In the case of `CN(Cc1cnc2nc(N)nc(N)c2n1)c1ccc(C(=O)N[C@@H](CCC(=O)O)C(=O)O)cc1` [Methotrexate], the “benefit in antibody induced arthritis models” value [2] is given as “diminishing benefit”.
Work on `O=C1c2c(O)ccc(O)c2C(=O)c2c(NCCNCCO)ccc(NCCNCCO)c21` [Mitoxantrone, reference compound] yielded an inhibition at 0.001 µM ([3]; 1 nM, read-out: % Growth Inhibition) of -1%, an inhibition at 0.01 µM ([3]; 10 nM, read-out: % Growth Inhibition) of 19% and an inhibition at 0.1 µM ([3]; 0.1 μM, read-out: % Growth Inhibition) of 80%. The inhibition at 1 µM ([3]; 1 μM, read-out: % Growth Inhibition) was 103%, the inhibition at 10 µM ([3]; 10 μM, read-out: % Growth Inhibition) was 103% and the IC50 ([3]; T-Cell + Con A proliferation, read-out: IC50) was 0.032 µM. For the same compound, the inhibition at 0.001 µM ([4]; 1 nM) was 2%, the inhibition at 0.01 µM ([4]; 10 nM) was 1% and the inhibition at 0.1 µM ([4]; 0.1 μM) was 5%. The inhibition at 1 µM ([4]; 1 μM) was 60%, the inhibition at 10 µM ([4]; 10 μM) was 102% and the “clinical score course (neurological impairment)” value ([5]; daily i.p. for 15 days from day 7 post immunization, Symadex 6 mg/kg, mitoxantrone 0.35 mg/kg) was “initial rise in neurological impairment is arrested”. The “statistical significance of therapeutic effect on clinical score vs control (Mann-Whitney rank-sum)” value ([5]; daily i.p. for 15 days, Symadex 6 mg/kg (p below 0.05), mitoxantrone 0.35 mg/kg) was “did not reach statistical significance”, the weight gain profile ([5]; daily i.p. for 15 days, Symadex 6 mg/kg, mitoxantrone 0.35 mg/kg, Symadex vs mitoxantrone p 0.034) was “impairs weight gain” and the “pathology score: meningeal inflammation (M) vs control” value ([5]; necropsy after 15 daily doses) was “statistically significant reduction”. The “pathology scores: perivascular cuffing (P), myelitis (E) and demyelination (D) vs control” value ([5]; necropsy after 15 daily doses, p value<0.05 from control) was “reducing the perivascular cuffing (P), myelitis (E) and demyelination (D)”, the inhibition at 0.001 µM ([6]; 1 nM) was 11% and the inhibition at 0.01 µM ([6]; 10 nM) was 13%. It also gave an inhibition at 0.1 µM ([6]; 0.1 μM) of 18%, an inhibition at 1 µM ([6]; 1 μM) of -4% and an inhibition at 10 µM ([6]; 10 μM) of 108%. The inhibition at 0.001 µM ([7]; 1 nM) was 18%, the inhibition at 0.01 µM ([7]; 10 nM) was 54% and the inhibition at 0.1 µM ([7]; 0.1 μM) was 93%. The inhibition at 1 µM ([7]; 1 μM) was 102% and the inhibition at 10 µM ([7]; 10 μM) was 102%.

From US20080108641A1, “Compounds for treating inflammatory disorders, demyelinating disdorders and cancers” (priority 2006, published 2008)
